# Test results: the supplement of paper PMC13380429
# What was measured:
# Conditions in all cases: 72 h
# Caco-2 [1] = assay: cell viability relative to DMSO; higher = less toxic
# Calu-3 [2] = assay: as above
# HepG2 [3] = assay: as above
# U2OS [4] = assay: as above
# Vero E6 [5] = assay: as above
# Caco-2 [6] = assay: relative viability EC50 (midpoint between 100% and the lowest measured viability); higher = less toxic
# Calu-3 [7] = assay: as above
# HepG2 [8] = assay: as above
# U2OS [9] = assay: as above
# Vero E6 [10] = assay: as above
# Caco-2 [11] = assay: drug sensitivity score (DSS) for viability; higher = more toxic; extreme values may be limits of the assay
# Calu-3 [12] = assay: as above
# HepG2 [13] = assay: as above
# U2OS [14] = assay: as above
# Vero E6 [15] = assay: as above
Compound,cell viability (Caco-2 [1]; 1 nM),cell viability (Caco-2 [1]; 10 nM),cell viability (Caco-2 [1]; 100 nM),cell viability (Caco-2 [1]; 1000 nM),cell viability (Caco-2 [1]; 10000 nM),cell viability (Calu-3 [2]; 1 nM),cell viability (Calu-3 [2]; 10 nM),cell viability (Calu-3 [2]; 100 nM),cell viability (Calu-3 [2]; 1000 nM),cell viability (Calu-3 [2]; 10000 nM),cell viability (HepG2 [3]; 1 nM),cell viability (HepG2 [3]; 10 nM),cell viability (HepG2 [3]; 100 nM),cell viability (HepG2 [3]; 1000 nM),cell viability (HepG2 [3]; 10000 nM),cell viability (U2OS [4]; 1 nM),cell viability (U2OS [4]; 10 nM),cell viability (U2OS [4]; 100 nM),cell viability (U2OS [4]; 1000 nM),cell viability (U2OS [4]; 10000 nM),cell viability (Vero E6 [5]; 1 nM),cell viability (Vero E6 [5]; 10 nM),cell viability (Vero E6 [5]; 100 nM),cell viability (Vero E6 [5]; 1000 nM),cell viability (Vero E6 [5]; 10000 nM),relative viability EC50 (Caco-2 [6]),relative viability EC50 (Calu-3 [7]),relative viability EC50 (HepG2 [8]),relative viability EC50 (U2OS [9]),relative viability EC50 (Vero E6 [10]),drug sensitivity score (Caco-2 [11]),drug sensitivity score (Calu-3 [12]),drug sensitivity score (HepG2 [13]),drug sensitivity score (U2OS [14]),drug sensitivity score (Vero E6 [15])
Cn1cc(C2=C(c3cn(C4CCN(Cc5ccccn5)CC4)c4ccccc34)C(=O)NC2=O)c2ccccc21 [enzastaurin],98.6%,104%,93.2%,98.4%,100%,109%,97.3%,118%,108%,109%,105%,113%,94%,98%,106%,102%,101%,102%,97.4%,101%,101%,107%,103%,105%,98.9%,> 10 µM,> 10 µM,> 10 µM,> 10 µM,> 10 µM,0,0,0,0,0
C=CCNc1c(O)cc2c(O)c1C[C@@H](C)C[C@H](OC)[C@H](O)[C@@H](C)/C=C(\C)[C@H](OC(N)=O)[C@@H](OC)/C=C\C=C(/C)C(=O)N2 [retaspimycin],92.1%,101%,94%,60%,27.8%,94.2%,89.1%,84.5%,46.2%,41.2%,97.3%,95.6%,6.2%,1.8%,2.9%,96.5%,99%,88%,5.2%,2.1%,99.3%,100%,104%,53.3%,25.5%,0.819 µM,0.199 µM,0.0315 µM,0.232 µM,0.815 µM,8.8,11.5,30,19.2,9.7
CN1C(=O)N(c2cc(Cl)cc(Cl)c2)C(=O)[C@]12CN(c1ccc(C(=O)O)cn1)C[C@H]2c1ccc(C#N)cc1,93.9%,98.4%,97.5%,89%,97.3%,104%,90.8%,93.7%,111%,107%,104%,93.1%,91.5%,96.9%,106%,98.8%,96.5%,100%,101%,94.4%,99.4%,102%,101%,93.7%,103%,> 10 µM,> 10 µM,> 10 µM,> 10 µM,> 10 µM,0,0,0,0,0
O=C(Nc1ccc2c(O)cc(S(=O)(=O)O)cc2c1)Nc1ccc2c(O)cc(S(=O)(=O)O)cc2c1 [AMI-1],87%,97.8%,92.8%,93.5%,97.2%,104%,100%,100%,109%,99.8%,101%,110%,106%,107%,94.3%,103%,102%,99%,102%,101%,97.2%,102%,102%,106%,96%,> 10 µM,> 10 µM,> 10 µM,> 10 µM,> 10 µM,0,0,0,0,0
CC(=O)N(C)c1cc(-c2ccnc3c(C(=O)c4cccs4)cnn23)ccc1F [lorediplon],100%,93.9%,87.5%,95.1%,88.1%,90.8%,106%,98.6%,104%,99.6%,94%,107%,95.6%,96.1%,80%,99.2%,97%,97%,96.7%,96.6%,97.9%,98.9%,93.9%,96.3%,91%,> 10 µM,> 10 µM,> 10 µM,> 10 µM,> 10 µM,0.3,0,1.1,0,0
CCC(CC)n1ccc2c(C(=O)NCc3c(C)cc(C)[nH]c3=O)cc(C#N)cc21 [EI1],105%,95.1%,97.2%,95.4%,93.6%,94.2%,96.6%,101%,109%,102%,90.7%,92.3%,101%,93.7%,97.6%,98.7%,99.4%,93.8%,96.1%,101%,105%,100%,107%,97.5%,104%,> 10 µM,> 10 µM,> 10 µM,> 10 µM,> 10 µM,0,0,0,0,0
CCCN1CCCC(c2cccc(O)c2)C1 (stereo in doubt) [preclamol],107%,94.9%,106%,93.1%,99.6%,110%,110%,112%,93.5%,99.6%,95.6%,110%,107%,112%,99.6%,102%,103%,102%,99.1%,101%,90.5%,99.2%,95.1%,98.3%,91.8%,> 10 µM,> 10 µM,> 10 µM,> 10 µM,> 10 µM,0,0,0,0,0
